Ends that are not written are not given here.

The experiment concerns the target T1, WW2 domain of human AIP4 (Homo sapiens, UniProt Q96J02).
T1 construct: The gene (114 bp) encoding the WW2 domain of human AIP4; Ssp DnaB intein (pTWIN1) (N, cleaved yes); made in house
The experiment in a line: NMR titration (2D 1H-15N HSQC chemical shift perturbation) of WW2 domain with LMP2A constructs. In kind it is binding.

T1 sequence (Q96J02 359-391): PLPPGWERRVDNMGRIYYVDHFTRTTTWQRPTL

In general, Kd refers to the constant that tells how readily two partners part at equilibrium. On to PPPPY [PY peptide], for which the Kd was found to be 389 µM.

These data come from paper PMC8190631, “Molecular Interactions between Two LMP2A PY Motifs of EBV and WW Domains of E3 Ubiquitin Ligase AIP4” (Life, 2021).
